Laboratory results from the CheMixHub ionic liquid set.

Test: xn = mol fraction of the nth substance listed

Cc1ccccc1 + CCCCCCCC[n+]1ccc2ccccc2c1.O=S(=O)([N-]S(=O)(=O)C(F)(F)F)C(F)(F)F
Settings	viscosity [mPa·s]
308.15 K, 101 kPa, x1 = 1	0.5

FC1CC(F)(F)C(F)(F)C1(F)F (stereo unspecified) + CCCC[N+]1(C)CCCC1.FC(F)(F)C(F)(F)[P-](F)(F)(F)(C(F)(F)C(F)(F)F)C(F)(F)C(F)(F)F
101 kPa
Settings	electrical conductivity [S/m]	viscosity [mPa·s]
298.1 K, x2 = 0	–	1.65
298.1 K, x2 = 0.252	–	8.05
298.1 K, x2 = 0.438	–	21.3
298.1 K, x2 = 0.653	0.275	–
298.1 K, x2 = 0.842	0.167	–
303 K, x2 = 0.177	0.746	–
303 K, x2 = 0.434	0.424	–
303 K, x2 = 0.839	0.21	–
303 K, x2 = 0.844	–	87.6
308.1 K, x2 = 0.077	0.594	–
313 K, x2 = 0.183	0.88	–
318.1 K, x2 = 0.077	0.699	–
318.1 K, x2 = 0.437	–	11.2
318.1 K, x2 = 0.836	0.359	–
323 K, x2 = 0.655	–	21.17

CCCCCCCCCCCCCCCC[N+](C)(C)C.[Br-] + CCO + O
298.2 K, 101.3 kPa
Settings	electrical conductivity [S/m]
x1 = 1.26e-06, x2 = 0.05064	0.00062
x1 = 3.09e-06, x2 = 0.05064	0.00117
x1 = 5.13e-06, x2 = 0.05064	0.00178
x1 = 7.19e-06, x2 = 0.05064	0.00236
x1 = 9.2e-06, x2 = 0.05064	0.00294
x1 = 1.12e-05, x2 = 0.05064	0.0035
x1 = 1.326e-05, x2 = 0.05064	0.00406
x1 = 1.526e-05, x2 = 0.05064	0.00458
x1 = 1.726e-05, x2 = 0.05064	0.00501
x1 = 1.932e-05, x2 = 0.05064	0.0055
x1 = 2.135e-05, x2 = 0.05064	0.00592
x1 = 2.333e-05, x2 = 0.05064	0.00629
x1 = 2.537e-05, x2 = 0.05064	0.00663
x1 = 2.735e-05, x2 = 0.05064	0.00698
x1 = 2.922e-05, x2 = 0.05064	0.00728
x1 = 3.097e-05, x2 = 0.05064	0.00754
x1 = 3.328e-05, x2 = 0.05064	0.00788

C1CN=C2CCCN2C1 + O=S(=O)([N-]S(=O)(=O)C(F)(F)F)C(F)(F)F.[Li+]
101 kPa, frequency 0 MHz, x1 = 0.8
Settings	electrical conductivity [S/m]
338.15 K	0.0385
368.15 K	0.152

101 kPa, x1 = 0.8
Settings	viscosity [mPa·s]
338.15 K	236
368.15 K	37.77

CCCCCCCCn1cc[n+](C)c1.N#C[S-] + [Br-].[Li+] + CN1CCCC1=O
298.15 K, 101 kPa
Settings	viscosity [mPa·s]
x1 = 0.001194, x2 = 0.02592	2.51
x1 = 0.001279, x2 = 0.05082	3.301
x1 = 0.001363, x2 = 0.07495	4.627
x1 = 0.002361, x2 = 0.07487	4.663
x1 = 0.002564, x2 = 0.05075	3.33
x1 = 0.002749, x2 = 0.02588	2.538
x1 = 0.003543, x2 = 0.07478	4.688
x1 = 0.003719, x2 = 0.05069	3.358
x1 = 0.003898, x2 = 0.02585	2.568
x1 = 0.004852, x2 = 0.05063	3.389
x1 = 0.005129, x2 = 0.07466	4.714
x1 = 0.00561, x2 = 0.02581	2.544
x1 = 0.005681, x2 = 0.05059	3.416
x1 = 0.006324, x2 = 0.07457	4.741
x1 = 0.006743, x2 = 0.02578	2.6
x1 = 0.007583, x2 = 0.07448	4.77
x1 = 0.007954, x2 = 0.05048	3.441
x1 = 0.008125, x2 = 0.02574	2.622
x1 = 0.008906, x2 = 0.07438	4.799
x1 = 0.009097, x2 = 0.05042	3.471
x1 = 0.009222, x2 = 0.02572	2.651
x1 = 0.009986, x2 = 0.05037	3.503
x1 = 0.01013, x2 = 0.02569	2.674
x1 = 0.01054, x2 = 0.07426	4.824
